Where two headings read alike, the source gives them in different places.
Experiments:
[1] = tested on: male OFl mice; test: Pentetrazole seizure (mortality after i.p. pentetrazole 125 mg/kg); assay type: in vivo; details: for ED50: Mus musculus, po, 0.25 h
Description: This test was carried out on batches of 10 male OFl mice which had fasted since the day before and were placed in individual cages, in accordance with the method of Cheymol (J.) Acta. Pharmacol., (1950), 2, 1-55.
The treatments were carried out perorally 15 minutes before intraperitoneal (i.p.) injection of a solution of pentetrazole (125 mg/kg).
The mortality is recorded 3 hours after this injection.
It is to be noted that the 50% effective doses (ED50), where these have been determined, were calculated by the method of MOOD (J. Am. Statist. Assoc., (1965), 60, 967-78).

[2] = tested on: male Swiss mice; test: Maximum electrical seizure; assay type: in vivo; details: for ED50: Mus musculus, po, 0.25 h, read-out: Maximum electrical seizure, ED50; for Maximum electrical seizure, % protection: peroral, 15 minutes
From the text: Maximum electrical seizure
The technique used is that recommended by GOODMAN (L. S.), SING-GREWALD (M.), BROWN (V. C.) and […] (E. A.), Am.
The animals tested are male Swiss mice grouped into batches of 10. The normal threshold of the electric shock which is capable of causing tonic extension of the front paws is first determined for each animal.

[3] = tested on: mouse; test: Ouabain seizure; assay type: in vivo; details: po, 0.25 h, read-out: Ouabain seizure, ED50
Description: Ouabain was administered intra-ventricularly at a dose of 5 γ/mouse in a volume of 0.02 ml.

[4] = Sedative activity: Rotarod test; assay type: in vivo, mice (male); details: mouse, in vivo, po
Description: This test is used for the purpose of assessing the ability of the animals to coordinate their movements. It uses a wooden cylinder which has a diameter of 4.8 cm and revolves at a speed of 4 revolutions/minute. The test is carried out on male mice weighing about 22 g. The products are administered perorally (p.o.) to batches of 10 animals per dose. The animals are placed on the apparatus 15 minutes after administration of the product. The percentage of mice which lose their equilibrium reflex, that is to say which become incapable of retaining their balance on the cylinder for a period of 2 minutes, is noted.
Using the regression straight line method, a 50% neurotoxic dose (NTD 50) is calculated, which thus expresses the average level of the first neuromuscular effects under the influence of the studied product.

[5] = Acute toxicity, peroral; details: mouse, in vivo, po
Description: In order to locate the boundary separating the pharmacological effects from the toxicity of the products, a very approximate assessment of the toxicity was carried out on mice (batches of 10 animals) after peroral treatment.

[6] = tested on: mice; test: β-Mercaptopropionic acid seizure; assay type: in vivo; details: for ED50: Mus musculus, po, 0.25 h, read-out: β-Mercaptopropionic acid seizure, ED50; for β-Mercaptopropionic acid seizure, % protection: at 400 mg/kg, peroral, 15 minutes
Description: β-Mercaptopropionic acid seizure
β-Mercaptopropionic acid is an inhibitor of glutamatedecarboxylase (GAD), which is an enzyme which catalyses the conversion of glutamate to γ-aminobutyric acid (GABA). Its action thus manifests itself in a lowering of the GABA level and the occurrence of general tonico-clonic seizures 3 to 4 minutes after it has been administered. β-Mercaptopropionic acid was administered to mice intraperitoneally at a dose of 40 mg/kg.

[7] = tested on: mice; test: Anoxia as a result of confinement; assay type: in vivo; details: Mus musculus, ip, read-out: Anoxia as a result of confinement, % increase in the survival time
Description: Anoxia as a result of confinement
Mice (in batches of 20) are placed in a 200 cm^3 hermetically sealed chamber (a wide-mouthed glass vessel) which is under normal pressure and has a normal content of atmospheric oxygen. All of the treatments are administered intraperitoneally immediately before introduction into the chamber. The animal is considered to be dead at the moment when breathing stops.
Since the wide-mouthed vessels chosen are very small, the motor activity of the animals is extremely low and this eliminates, in principle, the possibility of a positive result due to a sedative effect.
Therefore, the percentage increase in the survival time of the treated animals is noted, relative to the batch.

[8] = Table III, mice, peroral, 15 minutes after administration, read-out: DE 50, Pentetrazole crisis test
[9] = read-out: Pentetrazole seizure, ED50
[10] = mice, measured 15 minutes after peroral treatment
[11] = ouabain 5 γ/mouse intra-ventricularly, measured 15 minutes after peroral treatment
[12] = peroral, 15 minutes after administration, male mice, read-out: Sedative activity, Rotarod test, ED50
[13] = Table IV, mice, measured 15 minutes after peroral treatment, read-out: Pentetrazole seizure, ED50
[14] = read-out: DE 50, Pentetrazole crisis test
[15] = β-mercaptopropionic acid 40 mg/kg i.p., mice, 15 minutes after peroral treatment
[16] = at 50 mg/kg, intraperitoneal, mice

CCC1(C(=O)O)CCCCC1 [Example 15]
ED50 [1, 8]: 120 mg/kg

C#CCC1(C(N)=O)CCCCC1 [Example 30]
ED50 [1, 9]: 65 mg/kg | ED50 [2, 10]: 91 mg/kg | ED50 [3, 11]: 170 mg/kg | TD50 at 0.25 h [4, 12]: 125 mg/kg | mortality ([5]; at 500 mg/kg, peroral, mice): 20%

CC1(C(=O)[O-])CCCCC1.[Na+]
ED50 [1, 9]: 317 mg/kg | ED50 [2]: 563 mg/kg | ED50 ([3]; Mus musculus): 600 mg/kg | ED50 [6]: 118 mg/kg | ILS at 160 mg/kg [7]: 29% | TD50 at 0.25 h [4, 12]: 1020 mg/kg | mortality ([5]; at 1882 mg/kg, peroral, mice): 50%

COCC1(C(N)=O)CCCCC1 [Example 31]
ED50 [1, 13]: 195 mg/kg | ED50 [2, 10]: 200 mg/kg | ED50 [3, 11]: 250 mg/kg | TD50 at 0.25 h [4]: 300 mg/kg | mortality ([5]; 500 mg/kg): 0%

CC(C)(C)C1(C(=O)[O-])CCCCC1.[Na+] [Example 41, Sodium 1-tert-butyl-1-cyclohexyl-carboxylate]
ED50 [1, 14]: 131 mg/kg

NC(=O)C1(CBr)CCCCC1 [Example 26]
ED50 [1, 9]: 75 mg/kg | ED50 [6, 15]: 46 mg/kg | ILS at 50 mg/kg [7]: 6% | TD50 at 0.25 h [4, 12]: 125 mg/kg | mortality ([5]; at 500 mg/kg, peroral, mice): 0%

CCCC(CCC)C(=O)[O-].[Na+] [Depakene, sodium dipropyl-acetate, reference compound]
ED50 [1, 14]: 142 mg/kg

CC(C)(C)C1(C(N)=O)CCCCC1 [Example 42, 1-tert-butyl-1-cyclohexyl-carboxamide]
ED50 [1, 13]: 79 mg/kg | ED50 [6, 15]: 95 mg/kg

NC(=O)C1(CCOc2ccccc2)CCCCC1 [Example 54, 1-(2-phenoxyethyl)-1-cyclohexyl-carboxamide]
ED50 [1, 13]: 198 mg/kg | ED50 [6, 15]: 86 mg/kg | TD50 at 0.25 h [4]: 160 mg/kg

CC(C)C1(C(=O)O)CCCCC1 [Example 16]
ED50 [1, 8]: 110 mg/kg

NC(=O)C1(Cc2ccccc2)CCCCC1 [Example 32]
ED50 [1, 13]: 32 mg/kg | ED50 [2, 10]: 115 mg/kg | ED50 [3, 11]: 200 mg/kg | ED50 [6, 15]: 200 mg/kg | ILS at 50 mg/kg [7, 16]: 0% | TD50 at 0.25 h [4]: 125 mg/kg

O=C(CBr)CC1(C(=O)O)CCCCC1 [Example 47, 1-bromoacetonyl-1-cyclohexyl-carboxylic acid]
Pentetrazole seizure, % protection ([1]; at 395 mg/kg, peroral, 15 minutes, mice): 0% | β-Mercaptopropionic acid seizure, % protection ([6]; mice): 30% | ILS at 130 mg/kg ([7]; at 130 mg/kg, intraperitoneal, mice): 24% | mortality ([5]; at 790 mg/kg, peroral, mice): 30%

CC1(C(N)=O)CCCCC1 [Example 28]
ED50 [1, 13]: 178 mg/kg | ED50 [2, 10]: 311 mg/kg | ED50 [6, 15]: 100 mg/kg | ILS at 70 mg/kg ([7]; at 70 mg/kg, intraperitoneal, mice): 30% | TD50 at 0.25 h [4]: 425 mg/kg | mortality ([5]; 752 mg/kg): 50%

CC(C)(Cl)C1(C(N)=O)CCCCC1 [Example 39, 1-(1-chloro-1-methylethyl)-1-cyclohexyl-carboxamide]
ED50 [1, 13]: 66 mg/kg | ED50 [6, 15]: 63 mg/kg

C=CCC1(C(N)=O)CCCCC1 [Example 27]
ED50 [1, 13]: 20 mg/kg | ED50 [2, 10]: 55 mg/kg | ED50 [3, 11]: 66 mg/kg | ED50 [6, 15]: 38 mg/kg | ILS at 50 mg/kg [7, 16]: 0% | TD50 at 0.25 h [4]: 75 mg/kg | mortality ([5]; 500 mg/kg): 100%

C=C(Cl)CC1(C(N)=O)CCCCC1 [Example 24, 1-(2'-chloro-2'-propenyl)-1-cyclohexyl-carboxamide]
ED50 [1, 13]: 57 mg/kg | ED50 [2, 10]: 101 mg/kg | ED50 [3, 11]: 96 mg/kg | ED50 [6, 15]: 64 mg/kg | ILS at 50 mg/kg [7, 16]: 0% | TD50 at 0.25 h [4]: 125 mg/kg | mortality ([5]; 500 mg/kg): 20%

C=CC1(C(=O)[O-])CCCCC1.[Na+] [Example 37, Sodium 1-vinyl-1-cyclohexyl-carboxylate]
ED50 [1, 9]: 95 mg/kg

O=C([O-])C1(CC(Br)=CBr)CCCCC1.[Na+]
ED50 [1, 9]: 240 mg/kg | Maximum electrical seizure, % protection ([2]; at 600 mg/kg, mice): 60% | ED50 ([3]; Mus musculus): > 900 mg/kg | ED50 [6]: 340 mg/kg | ILS at 190 mg/kg [7]: 50% | TD50 at 0.25 h [4, 12]: 280 mg/kg | mortality ([5]; at 600 mg/kg, peroral, mice): 0%

O=C([O-])C1(Cc2ccccc2)CCCCC1.[Na+]
ED50 [1, 9]: 116 mg/kg | ED50 [2]: 431 mg/kg | ED50 ([3]; Mus musculus): 638 mg/kg | ED50 [6]: 257 mg/kg | ILS at 170 mg/kg [7]: 44% | TD50 at 0.25 h [4, 12]: 650 mg/kg | mortality ([5]; 1000 mg/kg, at 1,000 mg/kg, peroral, mice): 20%

O=C(O)C1(CC#CBr)CCCCC1 [Example 35, 1-(3-bromo-2-propynyl)-1-cyclohexyl-carboxylic acid]
ED50 [1, 13]: 335 mg/kg | Maximum electrical seizure, % protection ([2]; at 735 mg/kg, mice): 20% | β-Mercaptopropionic acid seizure, % protection ([6]; mice): 30% | TD50 at 0.25 h [4]: 245 mg/kg | mortality ([5]; at 735 mg/kg, peroral, mice): 0%

Reference: patent US4283420A, “Pharmaceutically active cyclohexyl compounds and their preparation” (Labaz, priority 1978, dated 1981)
